Laboratory results reported in the OligoGym collection.
Several values for one entry are separate records, joined by “and”; a condition that tells them apart may be missing. Identical values can stand only once. After the bases stand the sugars from the 5' end (letter, count) and the backbone: PS all phosphorothioate, else s phosphorothioate and o phosphodiester by linkage. Methylation of C is not given here. e = 2'-O-(2-methoxyethyl) (MOE); k = constrained ethyl (cEt); d = 2'-deoxy (DNA)

Molecular target: IRF4
Conditions: ASO

Row | Sequence | target mRNA inhibition (SK-MEL-28, 4 µM) [%] | target mRNA inhibition (MM.1R, 1 µM) | further results
1 | CGACACGCGCCGCTCG (sugars k3 d10 k3, PS) |  |  | target mRNA inhibition (MM.1R, 0.0625 µM): -6%; target mRNA inhibition (MM.1R, 0.25 µM): -10%; target mRNA inhibition (MM.1R, 4 µM): -13%
2 | CGAGCGGTGAAACTGA (sugars k3 d10 k3, PS) | 33 |  | 
3 | CGCACGGACGAACGCG (sugars k3 d10 k3, PS) |  | -17% | 
4 | CGCAGAGCCAGTAGGG (sugars k3 d10 k3, PS) | 67 |  | target mRNA inhibition (SK-MEL-28, 0.185 µM): 16% and 4% and 12%; target mRNA inhibition (SK-MEL-28, 5 µM): 56% and 59% and 77%; target mRNA inhibition (SK-MEL-28, 15 µM): 81% and 82% and 91%
5 | CGCAGGAGCGCGGAGG (sugars k3 d10 k3, PS) |  | -28% | 
6 | CGCCAGTGACCACGAG (sugars k3 d10 k3, PS) | 42 |  | 
7 | CGCCCGACCCTCCCCA (sugars k3 d10 k3, PS) |  | -24% | 
8 | CGCCGAAGTCAACAGG (sugars k3 d10 k3, PS) | 44 |  | 
9 | CGCCGGCACAGGCGCG (sugars k3 d10 k3, PS) |  | 14% | 
10 | CGCCTTAATGTTCAGC (sugars k3 d10 k3, PS) | 66 |  | 
11 | CGCGCAAAGGGCAAGG (sugars k3 d10 k3, PS) | 34 |  | 
12 | CGCGCAAGTCTACAGC (sugars k3 d10 k3, PS) |  | 13% | 
13 | CGGAGCTTCCCGTTGC (sugars k3 d10 k3, PS) | 35 |  | 
14 | CGGGAATTTCCATTGG (sugars k3 d10 k3, PS) | 50 |  | 
15 | CGGGAGAGCGGAGGCG (sugars k3 d10 k3, PS) | 0 |  | 
16 | CGGGAGATAAAGAACA (sugars k3 d10 k3, PS) | 31 |  | 
17 | CGGGTCTGAGATGTCC (sugars k3 d10 k3, PS) |  | -2% | 
18 | CGGTAGAGTGAGATGC (sugars k3 d10 k3, PS) | 54 |  | 
19 | CGTAACAACGACACAC (sugars k3 d10 k3, PS) |  | -35% | 
20 | CGTAATACAAATAAAG (sugars k3 d10 k3, PS) | 3 |  | 
21 | CGTAGTCCCTCCAGCT (sugars k3 d10 k3, PS) |  | 27% | 
22 | CGTCAAGGAGGCCTGG (sugars k3 d10 k3, PS) | 43 |  | 
23 | CGTCATGGGACATTGG (sugars k3 d10 k3, PS) | 56 |  | 
24 | CGTGAAACAGCAGTTC (sugars k3 d10 k3, PS) | 40 |  | 
25 | CGTGTGCTTGCCAAGC (sugars kkdddddddddkekek, PS) |  | 49% and 43% | 

Row | Sequence | target mRNA inhibition (SK-MEL-28, 4 µM) [%] | target mRNA inhibition (MM.1R, 1 µM) | further results
26 | CGTTCCTTTTCAGAGT (sugars k3 d10 k3, PS) | 30 |  | 
27 | CGTTCTCCCACACCAG (sugars k4 d8 k4, PS) | -1 |  | 
28 | CTAAAGAATGAGGGTC (sugars k3 d10 k3, PS) | 62 |  | 
29 | CTACCTCAGTTTGTGA (sugars k3 d10 k3, PS) | 41 |  | 
30 | CTACCTTTTTTGGCTC (sugars k3 d10 k3, PS) | 17 |  | 
31 | CTACTCTTCAGGCACC (sugars k3 d10 k3, PS) |  | 18% | 
32 | CTACTGGGTACATGGC (sugars k3 d10 k3, PS) | 84 |  | 
33 | CTAGATTCTCCCTGCA (sugars k3 d10 k3, PS) | 34 |  | 
34 | CTAGTCAGTGTCAATA (sugars k3 d10 k3, PS) | 51 |  | 
35 | CTATAGTGTTCCAGGA (sugars k3 d9 k3 e1, PS) |  | 31% | 
36 | CTATAGTGTTCCAGGA (sugars kkkddddddddkekek, PS) |  | 23% | 
37 | CTATATAAAAAGTGGG (sugars k3 d10 k3, PS) | 16 |  | 
38 | CTATTAAACAGCACTC (sugars k3 d10 k3, PS) | 18 |  | 
39 | CTATTATAGAGCATCA (sugars k3 d10 k3, PS) | 55 |  | 
40 | CTCACACACAGGATGT (sugars k3 d10 k3, PS) | 18 |  | 
41 | CTCATCACCGAACACA (sugars k3 d10 k3, PS) |  | 8% | 
42 | CTCCAGGGATGGAACA (sugars k3 d10 k3, PS) | 19 |  | 
43 | CTCCATCAATCATGAT (sugars k3 d10 k3, PS) | 33 |  | 
44 | CTCCTTTTTTGGCTCC (sugars k4 d8 k4, PS) | 7 |  | 
45 | CTCTATAGTGTTCCAG (sugars k3 d9 k3 e1, PS) |  | 65% | target mRNA inhibition (MM.1R, 0.074 µM): 14%; target mRNA inhibition (MM.1R, 0.222 µM): 30%; target mRNA inhibition (MM.1R, 0.666 µM): 54%; target mRNA inhibition (MM.1R, 2 µM): 76%
46 | CTCTATAGTGTTCCAG (sugars kkdddddddddkekek, PS) |  | 22% | 
47 | CTCTGCTCTGCACTCG (sugars k3 d10 k3, PS) | 41 |  | 
48 | CTCTTACTCCGCTGAG (sugars k3 d10 k3, PS) | -5 |  | 
49 | CTGAAACGGTCAGCAG (sugars k3 d10 k3, PS) |  | 3% | 
50 | CTGAAAGCGAGTCAGA (sugars k3 d10 k3, PS) |  | 6% | 
